Assay results taken from article PMC8780768 (Life, 2022).
“And” between values parts separate entries of the source, which are not always exact repeats. Equal values may be shown once. Read-outs that look alike come from different tables or passages of the source.

Key:
Assay type in all cases: cell-based
GABA-ρ2 receptors [1] = biological target: T1, GABA-ρ2 receptors (Homo sapiens, UniProt P28476); assay: Two-electrode voltage-clamp, co-application of ligand with GABA EC50 at GABA-ρ2 receptors (additive/inhibition)
T1 construct: expressed in transfected cells; host or cells: Xenopus laevis oocytes injected with cRNA
T1 sequence (P28476 21-465): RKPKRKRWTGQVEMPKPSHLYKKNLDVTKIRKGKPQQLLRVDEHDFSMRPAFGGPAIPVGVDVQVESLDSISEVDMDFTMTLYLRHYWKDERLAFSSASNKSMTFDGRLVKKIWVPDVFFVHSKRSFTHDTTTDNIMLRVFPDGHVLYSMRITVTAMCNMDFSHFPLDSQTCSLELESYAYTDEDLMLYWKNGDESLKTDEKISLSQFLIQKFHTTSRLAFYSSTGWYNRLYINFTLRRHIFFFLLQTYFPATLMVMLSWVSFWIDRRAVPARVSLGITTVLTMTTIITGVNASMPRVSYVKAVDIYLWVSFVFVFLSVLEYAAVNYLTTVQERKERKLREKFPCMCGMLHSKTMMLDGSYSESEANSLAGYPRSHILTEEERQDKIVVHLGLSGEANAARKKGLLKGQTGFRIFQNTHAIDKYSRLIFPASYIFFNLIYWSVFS
Method: (§1) The activity of receptors was tested by recording whole cell currents using the two-electrode voltage clamp technique as previously reported. In brief, fabricated microelectrodes prepared with a micropipette puller (Sutter instruments, Novato, CA, USA), were filled with 3 M KCl solution (0.3–2.3 MΩ). Oocytes were immersed with ND96 buffer in the cell chamber at approximately 5 mL/min rate. The microelectrode impaled cells were clamped at −60 mV (voltage), and the currents elicited in response to the application of ligand/s was recorded using a Power Lab 2/25 analogue–digital data acquisition system (AD Instruments, Sydney, NSW, Australia), a Geneclamp 500 B amplifier (Axon Instrument, Foster City, CA, USA), and Lab Chart version 5.0.2 program (ADInstruments, Sydney, Australia).
(§2) Ligands were applied into the perfusate until a peak response (maximal) was reached. All stock solutions of the ligands were freshly made on the day of experiments. Solutions of ligands dissolved in DMSO were standardized to contain less than 0.8% DMSO in the final perfusate solution to prevent any alteration in the recordings. Perfusates containing these ligands (chemicals) were freshly prepared before each application. The dose–response curves of ligands were obtained by increasing the concentrations of applied agonists on oocytes until the maximum current reached. […] All experiments were conducted using at least two batches of oocytes.
(§3) I = Imax [A]^nH / (EC50^nH + [A]^nH)(1) where I is the current response, referring to a known concentration of agonist; Imax is the maximum current obtained; [A] is the agonist concentration; EC50 is the concentration of agonist/partial agonist at which the current response is half maximal; and nH is the Hill coefficient.
(§4) The equations for bell-shaped and biphasic curves are embedded in GraphPad PRISM 8.02.
(§5) A p value < 0.05 was considered statistically significant. […] Significance assigned * if p < 0.05, ** if p < 0.01, *** if p < 0.001 and **** if p < 0.0001.

GABA-ρ1 receptors [2] = biological target: T2, GABA-ρ1 receptors (Homo sapiens, UniProt P24046); assay: Two-electrode voltage-clamp, co-application of ligand with GABA EC50 at GABA-ρ1 receptors (additive/inhibition); conditions: for GABA-ρ1 Additive/Inhibition Hill slope: co-application curve with GABA EC50
T2 construct: expressed in transfected cells; host or cells: Xenopus laevis oocytes injected with cRNA
T2 sequence (P24046 22-479): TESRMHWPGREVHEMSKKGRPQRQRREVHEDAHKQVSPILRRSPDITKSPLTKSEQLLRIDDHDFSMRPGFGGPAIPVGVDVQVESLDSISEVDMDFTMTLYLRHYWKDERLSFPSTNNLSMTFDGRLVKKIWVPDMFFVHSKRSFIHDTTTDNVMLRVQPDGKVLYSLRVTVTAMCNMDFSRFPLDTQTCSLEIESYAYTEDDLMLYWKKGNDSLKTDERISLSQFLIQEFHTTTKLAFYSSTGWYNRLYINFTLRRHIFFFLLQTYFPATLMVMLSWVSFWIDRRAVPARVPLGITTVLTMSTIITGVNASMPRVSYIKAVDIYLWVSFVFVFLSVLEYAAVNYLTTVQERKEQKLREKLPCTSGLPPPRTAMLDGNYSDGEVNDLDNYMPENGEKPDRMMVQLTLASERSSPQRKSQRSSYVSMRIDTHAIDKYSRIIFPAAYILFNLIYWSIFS
Method: as §1, §2, §3, §4, §5

GABA-ρ2 receptors [3] = biological target: T1, GABA-ρ2 receptors; assay: Two-electrode voltage-clamp, agonist dose–response at GABA-ρ2 receptors expressed in Xenopus oocytes; conditions: for GABA-ρ2 Efficacy: relative to GABA maximal response
Method: (§6) Ovary lobes were dissected from female Xenopus laevis (South Africa clawed frogs), which were removed as reported previously, in accordance with the National Health and Medical Research Council (NHMRC) of Australia’s ethical guidelines. This procedure is also approved by the University of Sydney’s animal ethics committee (2013/5915). In brief, the females of Xenopus laevis were anaesthetized using 0.17% 3-aminobenzoic acid ethyl ester with 0.02% NaCl for 10–15 min, and a lobe of the ovary was dissected. The lobes were washed with oocyte releasing buffer 2 (OR2: 82.5 mM NaCl, 5 mM HEPES, 2 mM KCl, 1 mM MgCl2.6H2O pH 7.5) and incubated with collagenase A (2 mg·mL^−1 in OR2, Boehringer Mannheim, Mannheim, Germany) for approximately 2 h to separate oocytes from follicular cells and connective tissue. The released oocytes were washed in ND96 solution (96 mM NaCl, 1 mM MgCl2.6H2O, 2 mM KCl, 5 mM HEPES, and 1.8 mM CaCl2 pH 7.5). Stage V–VI oocytes were collected and injected in the cytoplasm using a 15–20 μm diameter tip micropipette (micropipette puller, Sutter Instruments, Novato, CA, USA) and a Nanoject injector (Drummond Scientific Co., Broomall, PA, USA) set to deliver a total of ~15 ng of cRNA.
(§7) The injected oocytes were placed on an oscillator at 18 °C for 2–6 days in ND96 solution, which contained 0.5 mM theophylline, 2.5 mM pyruvate, 50 μg/mL tetracycline, and 50 μg/mL gentamycin.
as §1, §2, §3

GABA-ρ1 receptors [4] = biological target: T2, GABA-ρ1 receptors; assay: Two-electrode voltage-clamp, agonist dose–response at GABA-ρ1 receptors expressed in Xenopus oocytes
Method: as §6, §7, §1, §2, §3

[5] = bell-shaped/biphasic co-application curve with GABA EC50
[6] = co-applied with GABA EC50 (800 nM), % of GABA EC50 response
[7] = co-applied with GABA EC50, % of GABA EC50 response
[8] = relative to GABA maximal response
[9] = TEVC, Xenopus oocytes, −60 mV, read-out: GABA-ρ2 EC50
[10] = TEVC, Xenopus oocytes, −60 mV, read-out: GABA-ρ1 EC50
[11] = co-application curve with GABA EC50 (800 nM)

| SMILES | GABA-ρ2 Additive (%) (GABA-ρ2 receptors [1]; [6]) | % of GABA EC50 response when co-applied with 1 µM ligand (GABA-ρ2 receptors [1]; oocytes) | GABA-ρ1 Additive/Inhibition Hill slope (GABA-ρ1 receptors [2]) | GABA-ρ1 Additive (%) (GABA-ρ1 receptors [2]; [7]) | EC50 (GABA-ρ2 receptors [3]) | GABA-ρ2 Efficacy (GABA-ρ2 receptors [3]) | EC50 (GABA-ρ1 receptors [4]) | GABA-ρ1 Efficacy (GABA-ρ1 receptors [4]; [8]) | GABA-ρ2 Additive (%) (GABA-ρ2 receptors [1]) | % of GABA EC50 response when co-applied with 10 µM ligand (GABA-ρ2 receptors [1]; oocytes) | EC50 (GABA-ρ2 receptors [3]; [9]) | EC50 (GABA-ρ1 receptors [4]; [10]) | GABA-ρ2 Additive/Inhibition Hill slope (GABA-ρ2 receptors [1]; [11]) | also measured |
| --- | --- | --- | --- | --- | --- | --- | --- | --- | --- | --- | --- | --- | --- | --- |
| NCCC(=O)O [β-Alanine, β-alanine] | 120% | 108.9% | 1.5 ± 0.8 | 120% | 560 µM | 85% | 400 µM | 30% | – | – | – | – | – | % of GABA EC50 response when co-applied with 100 µM ligand (GABA-ρ2 receptors [1]; GABA-ρ2, GABA EC50 800 nM, ligand 100 µM): no significant effect; GABA-ρ2 Additive/Inhibition nH2 (GABA-ρ2 receptors [1]; [5]): 1.6 ± 0.36 |
| NCCCC(=O)O [GABA] | – | – | – | – | – | – | – | – | – | – | – | – | – | EC50 (GABA-ρ2 receptors [3]; TEVC, Xenopus oocytes, read-out: GABA-ρ2 EC50): 0.8 µM |
| O=C(O)Cc1c[nH]cn1 [Imidazole-4-acetic acid, imidazole-4-acetic acid] | – | 94.2 ± 1.4% | 1.3 ± 0.22 | 115% | 0.2 µM | 40% | 66 µM | 10% | 110% | 86.25 ± 3.5% | – | – | – | GABA-ρ2 Additive/Inhibition Hill slope (GABA-ρ2 receptors [1]): 0.87 ± 0.39; IC50 (GABA-ρ2 receptors [1]): 2.4 µM; IC50 (GABA-ρ1 receptors [2]): 0.8 µM; efficacy at GABA-ρ2 receptors, fold higher than at GABA-ρ1 receptors (GABA-ρ2 receptors [3]; ρ2 versus ρ1): 100 fold; potency at GABA-ρ2 receptors, fold higher than at GABA-ρ1 receptors (GABA-ρ2 receptors [3]; ρ2 versus ρ1): 4 fold |
| NCC(=O)O [Glycine, glycine] | – | – | – | 170% | – | 70% | – | 25% | 115% | – | ~1000 µM | ~1000 µM | – | % of GABA EC50 response when co-applied with 1 µM ligand (GABA-ρ2 receptors [1]): does not show a significant effect; % of GABA EC50 response when co-applied with 100 µM ligand (GABA-ρ2 receptors [1]): 115.4% and 115%; GABA-ρ2 Additive/Inhibition nH1 (GABA-ρ2 receptors [1]; [5]): 1.8 ± 0.3; GABA-ρ2 Additive/Inhibition nH2 (GABA-ρ2 receptors [1]; [5]): 1.7 ± 0.5 |
| O=C(O)C1=CCNCC1 [Isoguvacine, isoguvacine] | 120% | 106.8 ± 2.5% | 0.57 ± 0.25 | 135% | – | 25% | – | 40% | – | 110 ± 4.3% | 35 µM | 205 µM | 0.37 ± 3.1 | potency at GABA-ρ2 receptors, fold higher than at GABA-ρ1 receptors (GABA-ρ2 receptors [3]; ρ2 versus ρ1): six-fold; efficacy at GABA-ρ1 receptors, fold higher than at GABA-ρ2 receptors (GABA-ρ1 receptors [4]; ρ1 versus ρ2): two-fold |
| NC/C=C/C(=O)O [TACA] | 140% | 118.4% | 0.9 ± 0.08 | – | – | 85% | – | – | – | 137.5% | 0.45 ± 0.4 µM | 0.6 µM | 0.8 ± 0.46 | GABA-ρ1 Additive (%) (GABA-ρ1 receptors [2]): 190%; GABA-ρ1 Efficacy (GABA-ρ1 receptors [4]): 95% |
| NC/C=C\C(=O)O [CACA] | – | – | 0.9 ± 0.44 | – | – | 60% | – | – | – | – | 37 ± 12 µM | 93 ± 5.2 µM | – | effect on GABA EC50 response when co-applied with 1 mM ligand (GABA-ρ2 receptors [1]; GABA-ρ2, GABA EC50, ligand 1 mM, data not shown): does not show any significant effect; GABA-ρ1 Additive (%) (GABA-ρ1 receptors [2]): 160%; GABA-ρ1 Efficacy (GABA-ρ1 receptors [4]): 60% |
| NCCCCC(=O)O [5-Aminovaleric acid, 5-amino valeric acid] | 110% | 92% | 3 ± 0.75 | 125% | – | 45% | – | 3% | – | – | 36 µM | 600 µM | 0.6 ± 0.48 | IC50 (GABA-ρ2 receptors [1]): 10 µM; % of GABA EC50 response when co-applied with 100 µM ligand (GABA-ρ2 receptors [1]; oocytes): 51.1%; IC50 (GABA-ρ1 receptors [2]): 35 µM |
| NCc1cc(=O)[nH]o1 [Muscimol, muscimol] | – | 106.9 ± 1.1% | – | 125% | 0.65 µM | 65% | 1.25 µM | 80% | 112% | 107.9 ± 3.1% | – | – | – | GABA-ρ2 Additive/Inhibition Hill slope (GABA-ρ2 receptors [1]): 0.14 ± 0.48 |
